Laboratory results reported in US10844077B2, “Thiazolyl-containing compounds for treating proliferative diseases” (Dana-Farber Cancer Institute, Inc., priority 2014, dated 2020).
Values joined by “and” are separate entries in the source; they are usually repeats but may differ in a detail not shown here. Equal entries are not always repeated.

How the values were obtained:
Assay in all cases: KINATIV assay
Assay type in all cases: cell-based
AurA, AurB, AurC = settings: 1 μM, 90 minutes, BCWM.1 cells
Experimental: (§1) The cells were harvested and lysed. The lysates were directly labeled with an ATP-biotin probe. Bound kinases were identified and quantitated by ACTIVX as described in Patricelli et al., Biochemistry, 2007, 46(2): 350-358. The compounds were tested in duplicates against duplicate or quadruplicate control samples.

AurB = AurB (Homo sapiens (Human), UniProt Q96GD4); settings: 1 μM, 90 minutes, BCWM.1 cells
Experimental: as §1

BLK = BLK (Homo sapiens (Human), UniProt P51451); settings: 1 μM, 90 minutes, BCWM.1 cells
Sequence of BLK (P51451 whole entry): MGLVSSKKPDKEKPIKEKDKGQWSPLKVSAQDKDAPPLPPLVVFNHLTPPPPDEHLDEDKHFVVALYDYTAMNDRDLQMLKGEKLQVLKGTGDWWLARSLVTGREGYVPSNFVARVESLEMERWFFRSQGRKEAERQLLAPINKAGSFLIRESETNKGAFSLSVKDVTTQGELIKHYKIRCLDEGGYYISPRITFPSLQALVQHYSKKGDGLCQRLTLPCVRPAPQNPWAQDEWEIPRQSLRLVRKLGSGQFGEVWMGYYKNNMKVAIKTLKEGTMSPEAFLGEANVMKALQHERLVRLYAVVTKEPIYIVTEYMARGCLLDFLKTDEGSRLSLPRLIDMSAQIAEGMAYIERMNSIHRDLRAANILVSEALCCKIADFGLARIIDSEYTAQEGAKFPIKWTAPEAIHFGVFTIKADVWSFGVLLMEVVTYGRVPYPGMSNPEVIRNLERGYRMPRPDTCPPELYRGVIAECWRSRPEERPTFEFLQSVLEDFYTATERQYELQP
Experimental: as §1

CDK4 = CDK4 (Homo sapiens (Human), UniProt P11802); settings: 1 μM, 90 minutes, BCWM.1 cells
Experimental: as §1

CDK6 = CDK6 (Homo sapiens (Human), UniProt Q00534); settings: 1 μM, 90 minutes, BCWM.1 cells
Experimental: as §1

CDK9 = CDK9 (Homo sapiens (Human), UniProt P50750); settings: 1 μM, 90 minutes, BCWM.1 cells
Experimental: as §1

CLK3 = CLK3 (Homo sapiens (Human), UniProt P49761); settings: 1 μM, 90 minutes, BCWM.1 cells
Experimental: as §1

CSK = CSK (Homo sapiens (Human), UniProt P41240); settings: 1 μM, 90 minutes, BCWM.1 cells
Experimental: as §1

[1] = tested on: CaMK2a, CaMK2b, CaMK2d, CaMK2g; settings: 1 μM, 90 minutes, BCWM.1 cells
Experimental: as §1

Erk2 = Erk2 (Homo sapiens (Human), UniProt P28482); settings: 1 μM, 90 minutes, BCWM.1 cells
Experimental: as §1

GSK3B = GSK3B (Homo sapiens (Human), UniProt P49841); settings: GSK3B; 1 μM, 90 minutes, BCWM.1 cells
Sequence of GSK3B (P49841 whole entry): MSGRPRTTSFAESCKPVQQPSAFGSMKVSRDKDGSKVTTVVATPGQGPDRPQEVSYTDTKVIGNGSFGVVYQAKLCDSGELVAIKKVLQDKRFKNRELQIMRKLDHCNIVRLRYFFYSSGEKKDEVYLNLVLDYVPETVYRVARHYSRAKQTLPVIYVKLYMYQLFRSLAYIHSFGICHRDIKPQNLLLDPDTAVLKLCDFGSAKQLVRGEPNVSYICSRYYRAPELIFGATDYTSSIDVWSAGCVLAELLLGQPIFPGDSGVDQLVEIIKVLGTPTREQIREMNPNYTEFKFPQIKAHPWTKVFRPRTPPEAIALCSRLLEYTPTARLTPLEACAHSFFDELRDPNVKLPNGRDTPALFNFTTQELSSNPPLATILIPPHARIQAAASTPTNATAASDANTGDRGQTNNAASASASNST
Experimental: as §1

IKKe = IKKe (Homo sapiens (Human), UniProt Q14164); settings: 1 μM, 90 minutes, BCWM.1 cells
Experimental: as §1

IRAK1 = IRAK1 (Homo sapiens (Human), UniProt P51617); settings: 1 μM, 90 minutes, BCWM.1 cells
Experimental: as §1

IRE1 = IRE1 (Homo sapiens (Human), UniProt O75460); settings: 1 μM, 90 minutes, BCWM.1 cells
Experimental: as §1

JNK1, JNK2, JNK3 = settings: 1 μM, 90 minutes, BCWM.1 cells
Experimental: as §1

KHS1 = KHS1 (Homo sapiens (Human), UniProt Q9Y4K4); settings: 1 μM, 90 minutes, BCWM.1 cells
Experimental: as §1

LRRK2 = LRRK2 (Homo sapiens (Human), UniProt Q5S007); settings: 1 μM, 90 minutes, BCWM.1 cells
Sequence of LRRK2 (Q5S007 whole entry): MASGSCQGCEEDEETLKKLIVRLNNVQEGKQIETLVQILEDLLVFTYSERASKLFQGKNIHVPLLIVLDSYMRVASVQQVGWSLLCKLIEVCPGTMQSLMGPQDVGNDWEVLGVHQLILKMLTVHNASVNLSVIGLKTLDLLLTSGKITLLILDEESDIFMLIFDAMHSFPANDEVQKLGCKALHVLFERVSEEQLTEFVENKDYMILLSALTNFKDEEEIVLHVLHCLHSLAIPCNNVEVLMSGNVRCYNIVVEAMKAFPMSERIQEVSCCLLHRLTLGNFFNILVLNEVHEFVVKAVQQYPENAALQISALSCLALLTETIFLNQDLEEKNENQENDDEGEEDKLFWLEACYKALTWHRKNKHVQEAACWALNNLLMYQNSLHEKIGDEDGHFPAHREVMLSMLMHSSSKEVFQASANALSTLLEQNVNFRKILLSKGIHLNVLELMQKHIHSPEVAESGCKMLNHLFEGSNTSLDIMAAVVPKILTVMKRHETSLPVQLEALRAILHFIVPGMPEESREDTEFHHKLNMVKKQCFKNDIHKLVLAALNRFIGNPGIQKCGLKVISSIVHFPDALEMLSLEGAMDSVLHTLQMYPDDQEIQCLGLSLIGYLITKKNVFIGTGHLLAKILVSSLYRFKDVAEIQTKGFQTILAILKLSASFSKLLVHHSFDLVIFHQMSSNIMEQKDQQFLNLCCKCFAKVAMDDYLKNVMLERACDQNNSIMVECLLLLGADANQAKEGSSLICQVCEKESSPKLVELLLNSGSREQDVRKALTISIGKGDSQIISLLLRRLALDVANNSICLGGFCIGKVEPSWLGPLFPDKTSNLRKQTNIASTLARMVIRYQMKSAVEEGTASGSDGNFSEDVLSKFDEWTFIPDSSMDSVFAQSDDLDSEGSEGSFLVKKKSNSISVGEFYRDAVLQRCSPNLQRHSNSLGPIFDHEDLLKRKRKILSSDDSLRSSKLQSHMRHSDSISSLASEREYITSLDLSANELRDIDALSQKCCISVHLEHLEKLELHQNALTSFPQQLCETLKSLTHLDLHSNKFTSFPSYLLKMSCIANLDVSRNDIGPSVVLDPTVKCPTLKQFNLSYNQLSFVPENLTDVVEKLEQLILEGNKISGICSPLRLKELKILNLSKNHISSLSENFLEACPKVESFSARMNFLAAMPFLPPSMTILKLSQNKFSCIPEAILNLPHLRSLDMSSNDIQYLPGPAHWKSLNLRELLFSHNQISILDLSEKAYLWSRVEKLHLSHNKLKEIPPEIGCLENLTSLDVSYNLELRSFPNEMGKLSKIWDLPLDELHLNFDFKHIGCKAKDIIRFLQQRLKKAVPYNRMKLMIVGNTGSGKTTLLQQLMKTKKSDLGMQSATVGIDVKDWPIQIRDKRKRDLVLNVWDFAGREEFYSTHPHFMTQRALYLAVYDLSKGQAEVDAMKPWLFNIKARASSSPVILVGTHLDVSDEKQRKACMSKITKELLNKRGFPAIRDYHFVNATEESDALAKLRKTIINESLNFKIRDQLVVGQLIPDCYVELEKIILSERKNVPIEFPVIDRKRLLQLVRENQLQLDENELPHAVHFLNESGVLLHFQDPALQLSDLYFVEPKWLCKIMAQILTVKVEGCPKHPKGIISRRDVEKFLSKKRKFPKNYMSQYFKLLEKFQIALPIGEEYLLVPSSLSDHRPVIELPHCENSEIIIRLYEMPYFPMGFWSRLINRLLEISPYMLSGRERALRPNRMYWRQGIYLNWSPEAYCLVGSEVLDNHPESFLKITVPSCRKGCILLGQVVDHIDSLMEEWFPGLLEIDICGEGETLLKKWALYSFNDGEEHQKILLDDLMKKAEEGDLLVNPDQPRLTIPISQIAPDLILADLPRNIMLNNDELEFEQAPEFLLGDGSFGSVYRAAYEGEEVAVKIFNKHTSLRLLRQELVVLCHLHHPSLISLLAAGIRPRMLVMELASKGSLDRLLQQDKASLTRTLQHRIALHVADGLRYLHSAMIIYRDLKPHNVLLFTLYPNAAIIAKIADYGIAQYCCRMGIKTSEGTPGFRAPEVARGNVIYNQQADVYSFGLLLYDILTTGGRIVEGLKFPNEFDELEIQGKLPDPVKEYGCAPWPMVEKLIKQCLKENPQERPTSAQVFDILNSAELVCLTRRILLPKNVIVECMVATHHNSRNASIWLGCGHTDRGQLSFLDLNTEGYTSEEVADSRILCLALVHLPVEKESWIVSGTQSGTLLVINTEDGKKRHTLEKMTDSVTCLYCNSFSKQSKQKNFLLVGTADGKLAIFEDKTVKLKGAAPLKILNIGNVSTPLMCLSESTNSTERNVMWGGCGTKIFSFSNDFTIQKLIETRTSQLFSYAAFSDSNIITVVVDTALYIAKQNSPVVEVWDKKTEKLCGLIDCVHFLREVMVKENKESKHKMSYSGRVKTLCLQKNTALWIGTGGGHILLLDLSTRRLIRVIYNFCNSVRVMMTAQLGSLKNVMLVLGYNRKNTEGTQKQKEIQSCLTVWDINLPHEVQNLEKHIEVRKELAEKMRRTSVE
Experimental: as §1

MAP2K1 = MAP2K1 (Homo sapiens (Human), UniProt Q02750); settings: 1 μM, 90 minutes, BCWM.1 cells
Experimental: as §1

MAP2K6 = MAP2K6 (Homo sapiens (Human), UniProt P52564); settings: 1 μM, 90 minutes, BCWM.1 cells
Sequence of MAP2K6 (P52564 whole entry): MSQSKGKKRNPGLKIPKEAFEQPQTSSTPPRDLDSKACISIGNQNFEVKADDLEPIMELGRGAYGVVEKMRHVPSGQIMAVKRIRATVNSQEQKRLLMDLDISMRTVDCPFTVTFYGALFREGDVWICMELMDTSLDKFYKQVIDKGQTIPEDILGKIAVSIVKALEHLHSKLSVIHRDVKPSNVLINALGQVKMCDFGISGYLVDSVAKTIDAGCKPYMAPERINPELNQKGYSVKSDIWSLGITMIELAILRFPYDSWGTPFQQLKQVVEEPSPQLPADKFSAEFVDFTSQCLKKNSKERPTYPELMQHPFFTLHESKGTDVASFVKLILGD
Experimental: as §1

MARK3, MARK4 = settings: 1 μM, 90 minutes, BCWM.1 cells
Experimental: as §1

MYO3A, MYO3B = settings: 1 μM, 90 minutes, BCWM.1 cells
Experimental: as §1

NEK1 = NEK1 (Homo sapiens (Human), UniProt Q96PY6); settings: 1 μM, 90 minutes, BCWM.1 cells
Experimental: as §1

NEK3 = NEK3 (Homo sapiens (Human), UniProt P51956); settings: 1 μM, 90 minutes, BCWM.1 cells
Experimental: as §1

NEK6, NEK7 = settings: 1 μM, 90 minutes, BCWM.1 cells
Experimental: as §1

NLK = NLK (Homo sapiens (Human), UniProt Q9UBE8); settings: 1 μM, 90 minutes, BCWM.1 cells
Experimental: as §1

PIK3CB = PIK3CB (Homo sapiens (Human), UniProt P42338); settings: 1 μM, 90 minutes, BCWM.1 cells
Experimental: as §1

PIK3CG = PIK3CG (Homo sapiens (Human), UniProt P48736); settings: 1 μM, 90 minutes, BCWM.1 cells
Experimental: as §1

PIP5K3 = PIP5K3 (Homo sapiens (Human), UniProt Q9Y2I7); settings: 1 μM, 90 minutes, BCWM.1 cells
Experimental: as §1

RSK1 domain2 = RSK1 domain2 (Homo sapiens (Human), UniProt Q15418); settings: 1 μM, 90 minutes, BCWM.1 cells
Experimental: as §1

RSK2 domain2 = RSK2 domain2 (Homo sapiens (Human), UniProt P51812); settings: 1 μM, 90 minutes, BCWM.1 cells
Sequence of RSK2 domain2 (P51812 whole entry, the tested form may be a part): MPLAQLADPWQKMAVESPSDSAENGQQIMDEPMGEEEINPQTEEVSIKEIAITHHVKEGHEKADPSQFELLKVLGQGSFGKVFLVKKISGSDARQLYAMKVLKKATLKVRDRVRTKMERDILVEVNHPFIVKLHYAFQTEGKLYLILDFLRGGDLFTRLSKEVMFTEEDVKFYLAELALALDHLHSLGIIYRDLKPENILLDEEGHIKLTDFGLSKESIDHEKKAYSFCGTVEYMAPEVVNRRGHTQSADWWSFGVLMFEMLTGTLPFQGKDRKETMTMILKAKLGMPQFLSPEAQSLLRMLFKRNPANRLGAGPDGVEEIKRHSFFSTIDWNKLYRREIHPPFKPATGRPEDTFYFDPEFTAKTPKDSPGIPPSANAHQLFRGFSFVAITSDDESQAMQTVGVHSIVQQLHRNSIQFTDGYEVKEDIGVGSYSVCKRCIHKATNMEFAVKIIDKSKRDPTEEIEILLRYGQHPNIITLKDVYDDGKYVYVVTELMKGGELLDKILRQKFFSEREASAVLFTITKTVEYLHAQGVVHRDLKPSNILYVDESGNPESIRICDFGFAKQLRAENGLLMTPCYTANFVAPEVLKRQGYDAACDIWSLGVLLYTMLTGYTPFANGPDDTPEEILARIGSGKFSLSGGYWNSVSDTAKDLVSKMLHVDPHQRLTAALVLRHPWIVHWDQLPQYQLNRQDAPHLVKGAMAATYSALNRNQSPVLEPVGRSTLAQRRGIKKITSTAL
Experimental: as §1

RSKL1 = RSKL1 (Homo sapiens (Human), UniProt Q96S38); settings: 1 μM, 90 minutes, BCWM.1 cells
Experimental: as §1

STLK6 = STLK6 (Homo sapiens (Human), UniProt Q9C0K7); settings: 1 μM, 90 minutes, BCWM.1 cells
Experimental: as §1

TAK1 = TAK1 (Homo sapiens (Human), UniProt O43318); settings: 1 μM, 90 minutes, BCWM.1 cells
Experimental: as §1

ULK3 = ULK3 (Homo sapiens (Human), UniProt Q6PHR2); settings: 1 μM, 90 minutes, BCWM.1 cells
Sequence of ULK3 (Q6PHR2 whole entry): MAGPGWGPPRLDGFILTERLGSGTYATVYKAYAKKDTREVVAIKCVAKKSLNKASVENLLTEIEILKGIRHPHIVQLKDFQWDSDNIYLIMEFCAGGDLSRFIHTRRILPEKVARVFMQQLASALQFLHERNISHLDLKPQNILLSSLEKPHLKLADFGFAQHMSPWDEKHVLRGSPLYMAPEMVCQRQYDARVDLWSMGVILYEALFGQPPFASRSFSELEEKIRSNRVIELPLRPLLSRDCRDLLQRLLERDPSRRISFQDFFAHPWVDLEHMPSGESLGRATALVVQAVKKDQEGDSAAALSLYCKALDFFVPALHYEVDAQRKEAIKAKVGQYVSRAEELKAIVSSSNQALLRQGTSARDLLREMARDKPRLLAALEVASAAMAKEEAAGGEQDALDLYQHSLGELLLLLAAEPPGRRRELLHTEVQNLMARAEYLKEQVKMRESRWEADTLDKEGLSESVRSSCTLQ
Experimental: as §1

Wnk1, Wnk2, Wnk3 = settings: 1 μM, 90 minutes, BCWM.1 cells
Experimental: as §1

ZC2/TNIK = ZC2/TNIK (Homo sapiens (Human), UniProt Q9UKE5); settings: 1 μM, 90 minutes, BCWM.1 cells
Experimental: as §1

p38b = p38b (Homo sapiens (Human), UniProt Q15759); settings: 1 μM, 90 minutes, BCWM.1 cells
Experimental: as §1

p70S6K = p70S6K (Homo sapiens (Human), UniProt P23443); settings: 1 μM, 90 minutes, BCWM.1 cells
Experimental: as §1

PCTAIRE1, PCTAIRE3 = settings: 1 μM, 90 minutes, BCWM.1 cells
From the text: (§2) The cells were harvested and lysed.

PCTAIRE2, PCTAIRE3 = settings: 1 μM, 90 minutes, BCWM.1 cells
From the text: as §2

C=CC(=O)N1CC[C@@H](Nc2nccc(Nc3ncc(C(=O)Nc4c(C)cccc4C)s3)n2)C1 [Example I-4]
% change of MS signal compared to control sample (AurA, AurB, AurC): 2.3%
% change of MS signal compared to control sample (AurB): −10.1%
% change of MS signal compared to control sample (BLK): >95%
% change of MS signal compared to control sample (CDK4): 6.8%
% change of MS signal compared to control sample (CDK6): 7.8%
% change of MS signal compared to control sample (CDK9): −41.9%
% change of MS signal compared to control sample (CLK3): −1.3%
% change of MS signal compared to control sample (CSK): 35.7%
% change of MS signal compared to control sample [1]: 10.0%
% change of MS signal compared to control sample (Erk2): −3.2%
% change of MS signal compared to control sample (GSK3B): 0.7%
% change of MS signal compared to control sample (IKKe): 2.2%
% change of MS signal compared to control sample (IRAK1): 20.3%
% change of MS signal compared to control sample (IRE1): −44.3%
% change of MS signal compared to control sample (JNK1, JNK2, JNK3): 6.3%
% change of MS signal compared to control sample (KHS1): −2.1%
% change of MS signal compared to control sample (LRRK2): −5.7%
% change of MS signal compared to control sample (MAP2K1): −31.6%
% change of MS signal compared to control sample (MAP2K6): −18.0% and −10.7%
% change of MS signal compared to control sample (MARK3, MARK4): 19.1%
% change of MS signal compared to control sample (MYO3A, MYO3B): 15.9%
% change of MS signal compared to control sample (NEK1): 7.3%
% change of MS signal compared to control sample (NEK3): 3.5%
% change of MS signal compared to control sample (NEK6, NEK7): 3.7%
% change of MS signal compared to control sample (NLK): 6.7%
% change of MS signal compared to control sample (PIK3CB): −61.3%
% change of MS signal compared to control sample (PIK3CG): −46.3%
% change of MS signal compared to control sample (PIP5K3): 14.5%
% change of MS signal compared to control sample (RSK1 domain2): 12.5%
% change of MS signal compared to control sample (RSK2 domain2): 13.8%
% change of MS signal compared to control sample (RSKL1): 10.7%
% change of MS signal compared to control sample (STLK6): 7.4%
% change of MS signal compared to control sample (TAK1): 27.8%
% change of MS signal compared to control sample (ULK3): 22.5% and 21.9%
% change of MS signal compared to control sample (Wnk1, Wnk2, Wnk3): 17.5%
% change of MS signal compared to control sample (ZC2/TNIK): 48.8%
% change of MS signal compared to control sample (p38b): −29.6%
% change of MS signal compared to control sample (p70S6K): −102.3%
% change of MS signal compared to control sample (PCTAIRE1, PCTAIRE3): 12.7%
% change of MS signal compared to control sample (PCTAIRE2, PCTAIRE3): 27.9%
